Assay: safety assessments (adverse events, NCI CTCAE)
Conditions: AE resulting in dose interruption
Procedure: Adverse events were assessed continuously and graded according to NCI CTCAE v5.0.18. Complete blood count with differential, serum chemistries, and physical examinations were performed before the study; weekly during Cycles 1 and 2; on alternate weeks in Cycles 3 and 4; and monthly thereafter.

## Cc1ccc(C(=O)Nc2ccc(CN3CCN(C)CC3)c(C(F)(F)F)c2)cc1C#Cc1cnc2[nH]ncc2c1 [olverembatinib]
Accelerated phase n=38
  Acute myocardial infarction: 0 n (%)
  Anal abscess: 1 (2.6) n (%)
  Anemia: 5 (13.2) n (%)
  Atrial fibrillation: 1 (2.6) n (%)
  Atrial septal defect: 0 n (%)
  Chest pain: 0 n (%)
  Cholecystitis acute: 0 n (%)
  Cholelithiasis: 0 n (%)
  Febrile neutropenia: 0 n (%)
  Glaucoma: 0 n (%)
  Hematologic: 22 (57.9) n (%)
  Hemorrhoids: 0 n (%)
  Hepatocellular injury: 1 (2.6) n (%)
  Hyperbilirubinaemia: 0 n (%)
  Hyperglycaemia: 0 n (%)
  Hyperkalemia: 1 (2.6) n (%)
  Hypertriglyceridaemia: 1 (2.6) n (%)
  Hyperuricaemia: 0 n (%)
  Hypocalcemia: 0 n (%)
  Hypoesthesia: 0 n (%)
  Hypokalemia: 2 (5.3) n (%)
  Hyponatremia: 0 n (%)
  Increased alanine aminotransferase: 1 (2.6) n (%)
  Increased amylase: 0 n (%)
  Increased aspartate aminotransferase: 1 (2.6) n (%)
  Increased creatine phosphokinase: 1 (2.6) n (%)
  Increased pulmonary arterial pressure: 0 n (%)
  Increased γ-glutamyl transferase: 0 n (%)
  Influenza like illness: 0 n (%)
  Iridocyclitis: 1 (2.6) n (%)
  Lacunar infarction: 0 n (%)
  Leukopenia: 5 (13.2) n (%)
  Liver disorder: 0 n (%)
  Musculoskeletal pain: 1 (2.6) n (%)
  Myocardial strain: 0 n (%)
  Neutropenia: 4 (10.5) n (%)
  Nonhematologic: 14 (36.8) n (%)
  Pain: 0 n (%)
  Pain in extremity: 0 n (%)
  Peripheral swelling: 0 n (%)
  Pneumonia: 0 n (%)
  Proteinuria: 0 n (%)
  Pulmonary arterial hypertension: 0 n (%)
  Pulmonary tuberculosis: 1 (2.6) n (%)
  Pyrexia: 2 (5.3) n (%)
  Rash: 1 (2.6) n (%)
  Refraction disorder: 0 n (%)
  Sinus bradycardia: 0 n (%)
  Sinus tachycardia: 1 (2.6) n (%)
  Skin mass: 0 n (%)
  Superior mesenteric artery syndrome: 0 n (%)
  Supraventricular extrasystoles: 1 (2.6) n (%)
  Swelling: 0 n (%)
  Thrombocytopenia: 17 (44.7) n (%)
  Upper-respiratory-tract infection: 1 (2.6) n (%)
  Urinary sediment present: 0 n (%)
Chronic phase n=127
  Acute myocardial infarction: 1 (0.8) n (%)
  Anal abscess: 0 n (%)
  Anemia: 3 (2.4) n (%)
  Atrial fibrillation: 1 (0.8) n (%)
  Atrial septal defect: 1 (0.8) n (%)
  Chest pain: 1 (0.8) n (%)
  Cholecystitis acute: 1 (0.8) n (%)
  Cholelithiasis: 1 (0.8) n (%)
  Febrile neutropenia: 1 (0.8) n (%)
  Glaucoma: 1 (0.8) n (%)
  Hematologic: 44 (34.6) n (%)
  Hemorrhoids: 1 (0.8) n (%)
  Hepatocellular injury: 0 n (%)
  Hyperbilirubinaemia: 2 (1.6) n (%)
  Hyperglycaemia: 1 (0.8) n (%)
  Hyperkalemia: 0 n (%)
  Hypertriglyceridaemia: 3 (2.4) n (%)
  Hyperuricaemia: 1 (0.8) n (%)
  Hypocalcemia: 3 (2.4) n (%)
  Hypoesthesia: 1 (0.8) n (%)
  Hypokalemia: 0 n (%)
  Hyponatremia: 1 (0.8) n (%)
  Increased alanine aminotransferase: 3 (2.4) n (%)
  Increased amylase: 1 (0.8) n (%)
  Increased aspartate aminotransferase: 2 (1.6) n (%)
  Increased creatine phosphokinase: 3 (2.4) n (%)
  Increased pulmonary arterial pressure: 1 (0.8) n (%)
  Increased γ-glutamyl transferase: 1 (0.8) n (%)
  Influenza like illness: 1 (0.8) n (%)
  Iridocyclitis: 0 n (%)
  Lacunar infarction: 1 (0.8) n (%)
  Leukopenia: 4 (3.1) n (%)
  Liver disorder: 1 (0.8) n (%)
  Musculoskeletal pain: 0 n (%)
  Myocardial strain: 1 (0.8) n (%)
  Neutropenia: 1 (0.8) n (%)
  Nonhematologic: 34 (26.8) n (%)
  Pain: 1 (0.8) n (%)
  Pain in extremity: 1 (0.8) n (%)
  Pericardial effusion: 0 n (%)
  Peripheral swelling: 1 (0.8) n (%)
  Pneumonia: 2 (1.6) n (%)
  Proteinuria: 1 (0.8) n (%)
  Pulmonary arterial hypertension: 1 (0.8) n (%)
  Pulmonary tuberculosis: 0 n (%)
  Pyrexia: 1 (0.8) n (%)
  Rash: 0 n (%)
  Refraction disorder: 1 (0.8) n (%)
  Sinus bradycardia: 1 (0.8) n (%)
  Sinus tachycardia: 1 (0.8) n (%)
  Skin mass: 1 (0.8) n (%)
  Superior mesenteric artery syndrome: 1 (0.8) n (%)
  Supraventricular extrasystoles: 0 n (%)
  Swelling: 1 (0.8) n (%)
  Thrombocytopenia: 42 (33.1) n (%)
  Upper-respiratory-tract infection: 1 (0.8) n (%)
  Urinary sediment present: 1 (0.8) n (%)
Total n=165
  Acute myocardial infarction: 1 (0.6) n (%)
  Anal abscess: 1 (0.6) n (%)
  Anemia: 8 (4.8) n (%)
  Atrial fibrillation: 2 (1.2) n (%)
  Atrial septal defect: 1 (0.6) n (%)
  Chest pain: 1 (0.6) n (%)
  Cholecystitis acute: 1 (0.6) n (%)
  Cholelithiasis: 1 (0.6) n (%)
  Febrile neutropenia: 1 (0.6) n (%)
  Glaucoma: 1 (0.6) n (%)
  Hematologic: 66 (40.0) n (%)
  Hemorrhoids: 1 (0.6) n (%)
  Hepatocellular injury: 1 (0.6) n (%)
  Hyperbilirubinaemia: 2 (1.2) n (%)
  Hyperglycaemia: 1 (0.6) n (%)
  Hyperkalemia: 1 (0.6) n (%)
  Hypertriglyceridaemia: 4 (2.4) n (%)
  Hyperuricaemia: 1 (0.6) n (%)
  Hypocalcemia: 3 (1.8) n (%)
  Hypoesthesia: 1 (0.6) n (%)
  Hypokalemia: 2 (1.2) n (%)
  Hyponatremia: 1 (0.6) n (%)
  Increased alanine aminotransferase: 4 (2.4) n (%)
  Increased amylase: 1 (0.6) n (%)
  Increased aspartate aminotransferase: 3 (1.8) n (%)
  Increased creatine phosphokinase: 4 (2.4) n (%)
  Increased pulmonary arterial pressure: 1 (0.6) n (%)
  Increased γ-glutamyl transferase: 1 (0.6) n (%)
  Influenza like illness: 1 (0.6) n (%)
  Iridocyclitis: 1 (0.6) n (%)
  Lacunar infarction: 1 (0.6) n (%)
  Leukopenia: 9 (5.5) n (%)
  Liver disorder: 1 (0.6) n (%)

Source: article PMC9389804 (Journal of Hematology & Oncology, 2022)
